“And” between values parts separate entries of the source, which are not always exact repeats. Equal values may be shown once. Read-outs that look alike come from different tables or passages of the source.
What was measured:
human TPST1 [1] = molecular target: T1, human TPST1 (Homo sapiens, UniProt O60507); assay: EZ Reader II microfluidic mobility-shift CC4-tide sulfation assay, TPST1; assay type: biochemical; details: for inhibition at 20 µM: read-out: TPST1 enzyme inhibition, PKIS screen; for Sensitivity of TPST1 inhibition to the concentration of PAPS: increasing PAPS, fixed 20 µM PAP or 100 µM ATP, CoA, dephospho-CoA; for IC50 / TPST1 inhibition at 400 μM: 10 µM PAPS; for TPST1 inhibition at 400 μM: Fig 8A, TPST1 0.1 µM, inhibitor 400 µM, duplicate
T1 construct: human TPST1 (residues Lys43–Leu360) and TPST2 (residues Gly43–Leu359) enzymes lacking the transmembrane domains; made in house; host or cells: E. coli BL21 (DE3) pLysS
T1 sequence (O60507 43-360): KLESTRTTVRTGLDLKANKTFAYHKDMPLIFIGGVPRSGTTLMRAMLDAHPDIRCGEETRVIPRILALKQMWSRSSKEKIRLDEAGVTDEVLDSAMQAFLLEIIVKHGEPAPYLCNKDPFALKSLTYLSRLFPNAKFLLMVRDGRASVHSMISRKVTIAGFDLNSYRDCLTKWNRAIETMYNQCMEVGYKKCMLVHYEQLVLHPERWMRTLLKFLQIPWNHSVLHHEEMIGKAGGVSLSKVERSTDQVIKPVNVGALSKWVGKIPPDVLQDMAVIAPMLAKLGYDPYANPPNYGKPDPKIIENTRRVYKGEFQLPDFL

human TPST1 [2] = molecular target: T1, human TPST1; assay: Differential scanning fluorimetry (thermal shift) assay with TPST1; assay type: binding; details: DSF, TPST1 5 µM, 0.5 mM nucleotide; for Thermal shift of TPST1 (in words): panel of nucleotide-based cofactors; for ΔTm TPST1: relative to buffer control
human TPST2 = molecular target: T2, human TPST2 (Homo sapiens, UniProt O60704); assay: Differential scanning fluorimetry (thermal shift) assay with TPST2; assay type: binding; details: DSF, TPST2 5 µM, 0.5 mM nucleotide; for Thermal shift of TPST2 (in words): panel of nucleotide-based cofactors
T2 construct: TPST2 (residues Gly43–Leu359) enzymes lacking the transmembrane domains; made in house; host or cells: E. coli BL21 (DE3) pLysS
T2 sequence (O60704 43-359): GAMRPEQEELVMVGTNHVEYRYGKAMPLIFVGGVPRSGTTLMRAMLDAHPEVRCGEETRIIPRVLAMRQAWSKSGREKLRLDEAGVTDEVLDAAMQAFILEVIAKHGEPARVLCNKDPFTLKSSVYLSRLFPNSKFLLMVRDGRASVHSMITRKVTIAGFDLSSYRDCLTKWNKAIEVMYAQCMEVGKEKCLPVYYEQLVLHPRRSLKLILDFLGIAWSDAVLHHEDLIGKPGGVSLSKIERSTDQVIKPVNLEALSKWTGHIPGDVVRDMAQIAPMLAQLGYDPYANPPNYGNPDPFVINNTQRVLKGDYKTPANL

TPST2 = details: cited from earlier work
TPST1 = details: read-out: Km for PAPS, TPST1, literature reports; cited from earlier work
human TPST1 [3] = molecular target: T1, human TPST1; assay: GST-CC4-tide tyrosine sulfation by TPST1, immunoblotting with monoclonal sulfotyrosine antibody; assay type: biochemical
Protocol: After the assay, proteins were denatured in Laemmli sample buffer, heated at 95°C for 5 min and then analysed by SDS–PAGE with 10% (v/v) polyacrylamide gels. Gels were stained and destained using a standard Coomassie Brilliant Blue protocol. To evaluate protein sulfation and phosphorylation by immunoblotting, standard western blotting procedures were followed using monoclonal anti-sulfotyrosine antibody clone Sulfo-1C-A2 (Millipore) generated using a phage display procedure and sulfotyrosine selection peptide antigens in the presence of appropriate positive and negative controls, and modifications visualised using the ECL reagent.

[4] = system: heparin sulfate 2-O sulfotransferase HS2ST; design: method as in PMID 29934491; details: cited from earlier work
[5] = substrate: Nc1ncnc2c1ncn2C1OC(COP(=O)(O)OS(=O)(=O)O)C(OP(=O)(O)O)C1O; assay: EZ Reader II microfluidic mobility-shift CC4-tide sulfation assay, TPST1; assay type: biochemical, human; details: other: CC4-tide 2 µM, TPST1 0.1 µM, four independent experiments; pH 7.4
[6] = Fig 5A, CC4-tide, 0.1 µM TPST1, absence of MgCl2, read-out: IC50 TPST1, panel of nucleotides
[7] = Fig 8B, TPST1 0.1 µM pre-incubated with compound, read-out: TPST1 estimated IC50, RAF kinase inhibitors

CNC(=O)c1cncc(/C=C/c2ccccc2Cl)c1 [GW445017X] gave an inhibition at 20 µM (human TPST1 [1]) of over 40%.

In the case of Cc1cc(-c2ccco2)cc(C)c1/C=C/c1cncc(-c2nn[nH]n2)c1 [GW458344A], the inhibition at 20 µM (human TPST1 [1]) is reported as over 40%.

In the case of Nc1ncnc2c1ncn2C1OC(COP(=O)(O)O)C(OP(=O)(O)O)C1O (centres unmarked) [PAP, adenosine 3′–5′-diphosphate], the “Thermal shift of TPST1 (in words)” value (human TPST1 [2]) is reported as “marked stabilisation”, the “ΔTm TPST1” value (human TPST1 [2]) is reported as about 10 °C and the “Thermal shift of TPST2 (in words)” value (human TPST2) is reported as “marked stabilisation”. For the same molecule, the “Sensitivity of TPST1 inhibition to the concentration of PAPS” value (human TPST1 [1]; CC4-tide) was “highly sensitive” and the IC50 (human TPST1 [1]; [6]) was 1.5 µM.

For Nc1ncnc2c1ncn2C1OC(COP(=O)(O)OS(=O)(=O)O)C(OP(=O)(O)O)C1O (centres unmarked) [PAPS, adenosine 3′-phosphate 5′-phosphosulfate], the “ΔTm TPST1” value (human TPST1 [2]) is given as about 3 °C, the “ΔTm TPST2” value (human TPST2; relative to buffer control) is given as about 9 °C and the Km (TPST2; read-out: Km for PAPS, TPST2 obtained from transfected CHO cell medium) is given as 12 µM. For the same molecule, the Km (TPST2; read-out: Km for PAPS, recombinant TPST2 isolated from baculovirus-infected insect cells) was about 5 µM and the Km (TPST1) was 2 to 5 µM.

CCCS(=O)(=O)Nc1ccc(F)c(C(=O)c2c[nH]c3ncc(Cl)cc23)c1F [PLX-4720] showed an IC50 (human TPST1 [1]; [7]) of over 400 µM.

With Cn1c(Nc2ccc(C(F)(F)F)cc2)nc2cc(Oc3ccnc(-c4ncc(C(F)(F)F)[nH]4)c3)ccc21 [RAF265] the “TPST1 inhibition at 400 μM” value (human TPST1 [1]) was “essentially complete TPST1 inhibition”, the IC50 (human TPST1 [1]; [7]) was 6.5 µM and the “Inhibition of GST-CC4-tide tyrosine sulfation by TPST1 (immunoblot, in words)” value (human TPST1 [3]; GST-CC4-tide 1 µg, 10 µM PAPS, increasing concentrations of inhibitor) was “dose-dependent inhibition”. For the same molecule, the “Mode of TPST1 inhibition with respect to PAPS (immunoblot densitometry)” value (human TPST1 [3]; GST-CC4-tide, increasing PAPS concentration) was “partially competitive mode of inhibition with PAPS” and the “HS2ST inhibition in vitro (in words)” value [4] was “did not inhibit HS2ST at any concentration tested”.

In the case of CNC(=O)c1cc(Oc2ccc(NC(=O)Nc3ccc(Cl)c(C(F)(F)F)c3)cc2)ccn1 [Sorafenib, sorafenib], the “TPST1 inhibition at 400 μM” value (human TPST1 [1]) is reported as “essentially complete TPST1 inhibition” and the IC50 (human TPST1 [1]; [7]) is reported as 119 µM.

In the case of Cc1ccc(C(=O)Nc2ccc(S(=O)(=O)O)c3cc(S(=O)(=O)O)cc(S(=O)(=O)O)c23)cc1NC(=O)c1cccc(NC(=O)Nc2cccc(C(=O)Nc3cc(C(=O)Nc4ccc(S(=O)(=O)O)c5cc(S(=O)(=O)O)cc(S(=O)(=O)O)c45)ccc3C)c2)c1 [Suramin, suramin], the “HS2ST inhibition in vitro (in words)” value [4] is listed as “inhibitory activity”.

For CCCS(=O)(=O)Nc1ccc(F)c(C(=O)c2c[nH]c3ncc(-c4ccc(Cl)cc4)cc23)c1F [Vemurafenib, vemurafenib], the “TPST1 inhibition at 400 μM” value (human TPST1 [1]) was “essentially complete TPST1 inhibition” and the IC50 (human TPST1 [1]; [7]) was 42.9 µM and ~40 µM.

For Cc1ccc(NC(=O)c2cccc(N(C)C)c2)cc1NC(=O)c1ccc(O)cc1 [ZM336372], the “TPST1 inhibition at 400 μM” value (human TPST1 [1]) was “essentially complete TPST1 inhibition” and the IC50 (human TPST1 [1]; [7]) was 253 µM.

In the case of CC(=O)SCCNC(=O)CCNC(=O)[C@H](O)C(C)(C)COP(=O)(O)OP(=O)(O)OC[C@H]1O[C@@H](n2cnc3c(N)ncnc32)[C@H](O)[C@@H]1OP(=O)(O)O [acetyl CoA], the “Thermal shift of TPST1 (in words)” value (human TPST1 [2]) is reported as “marked stabilisation” and the “Thermal shift of TPST2 (in words)” value (human TPST2) is reported as “marked stabilisation”.

In the case of CC(C)(COP(=O)(O)OP(=O)(O)OC[C@H]1O[C@@H](n2cnc3c(N)ncnc32)[C@H](O)[C@@H]1O)[C@@H](O)C(=O)NCCC(=O)NCCS [dephospho-CoA, 3′-dephosphoCoA], the “Thermal shift of TPST1 (in words)” value (human TPST1 [2]) is reported as “unable to induce thermal shifts”, the “Thermal shift of TPST2 (in words)” value (human TPST2) is reported as “unable to induce thermal shifts” and the “Sensitivity of TPST1 inhibition to the concentration of PAPS” value (human TPST1 [1]; CC4-tide) is reported as “largely insensitive”. It also gave an IC50 (human TPST1 [1]; [6]) of 166 µM.

B1: human TPST1 (Homo sapiens) (protein)
chain: KLESTRTTVRTGLDLKANKTFAYHKDMPLIFIGGVPRSGTTLMRAMLDAHPDIRCGEETRVIPRILALKQMWSRSSKEKIRLDEAGVTDEVLDSAMQAFLLEIIVKHGEPAPYLCNKDPFALKSLTYLSRLFPNAKFLLMVRDGRASVHSMISRKVTIAGFDLNSYRDCLTKWNRAIETMYNQCMEVGYKKCMLVHYEQLVLHPERWMRTLLKFLQIPWNHSVLHHEEMIGKAGGVSLSKVERSTDQVIKPVNVGALSKWVGKIPPDVLQDMAVIAPMLAKLGYDPYANPPNYGKPDPKIIENTRRVYKGEFQLPDFL
notes: human TPST1 (residues Lys43–Leu360) and TPST2 (residues Gly43–Leu359) enzymes lacking the transmembrane domains; made in house; host or cells: E. coli BL21 (DE3) pLysS
With B1 the Km [5] was 6.6 ± 1.9 µM.
